Experiments:
[1] = ATF2W alone; 222 nm, 1 to 95 °C, pH 7.4, 10 mM TCEP.HCl; two-state model
Experimental: (§1) (DMF). Deprotection was performed by addition of 0.75 mL 30% pyrrolidine into the coupling reaction. Peptides were acetylated at the N-terminus by a final reaction with 3x acetic anhydride, 4.5x diisopropylethylamine in DMF for one hour at room temperature. Incubation in a cleavage mixture (95% TFA, 2.5% triisopropylsilane, 2.5% H2O, 10 mL) for 4 h at room temperature cleaved the peptide from the resin and removed side chain protecting groups.
(§2) 2.5% DODT was added to the cleavage cocktail for ATF2. The resin was removed by filtration and cleaved peptides were precipitated in diethyl ether at -80°C and centrifuged.
This pellet was washed a further four times with diethyl ether before it was dried overnight at room temperature. Peptides were resuspended in 1:1 water:acetonitrile (0.1% TFA) before purification using RP-HPLC with a Jupiter Proteo column (4-μm particle size, 90 Å pore size, 250 × 10 mm; Phenomenex) using a water:acetonitrile gradient (0.1% TFA). Peptide masses and purity (>95%) were verified by electrospray ionisation mass spectrometry. Upon solubilising in buffer, peptides were centrifuged to ensure insoluble/aggregated material was removed before peptide concentration determination.
Circular Dichroism: An Applied Photophysics Chirascan was used for CD measurements, with a 200 µL sample in a 1 mm path length CD cell. […]

CREB1-CRE complex = target: T1, CREB1-CRE complex (Homo sapiens, UniProt P16220); experiment: FP antagonism assay CREB1-CRE; type: biochemical; details: FP IC50, CREB1-CRE vs ATF2-CRE
T1 construct: Ala283 to Asp341
T1 sequence (P16220 283-341 isoform P16220-1): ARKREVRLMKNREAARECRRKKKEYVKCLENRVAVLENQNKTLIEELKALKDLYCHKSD
Experimental: Fluorescence polarization (FP) was next utilized to confirm that ATF2W binding induces the intended antagonism of the ATF2-CRE interaction. […] To assess ATF2W antagonism, 625 nM ATF2, which corresponded to 80% of the maximum DNA binding, was incubated with CRE DNA (10 nM) and varied concentrations of ATF2W (29 nM-12 μM). […] This represents a ∼ 3-fold selectivity for ATF2. […] As the peptide library was designed using established coiled coil interaction rules, it was expected that many sequences would bind the target.
as §1, §2
This pellet was washed a further four times with diethyl ether before it was dried overnight at room temperature. […]

DLX5/H-Box complex = experiment: FP antagonism assay DLX5/H-Box; type: biochemical; details: FAM-H-Box DNA, over the concentration range tested

Ac-LEQQLEELAQENEELEKEAAELQQQIARLKNEVAKLENENKTLDREIKALQREYSHKSD-NH2 [ATF2W]
Tm [1]: 37 °C | fold selectivity for ATF2 over CREB1 (CREB1-CRE complex): ~3 -fold | antagonism of DLX5/H-Box interaction (DLX5/H-Box complex): minimal antagonism
